# Results published in patent US5602106A, “16-membered macrolide derivatives” (priority 1993, dated 1997).
# Where two headings read alike, the source gives them in different places.
# What was measured:
# Format in all cases: cell-based
# test strains = experiment: Antimicrobial activity in vitro, test strains overall; conditions: for antimicrobial activities compared with starting materials (1), (2) and (33): 9-O-acylated vs free 9-hydroxyl; for antimicrobial activities compared with compound (1): vs compound (1)
# Description: (§1) The effect of the first aspect of the present invention resides in the creation of a novel and useful 16-membered macrolide derivative. Antimicrobial activities of the compounds of the present invention were determined by measuring minimum inhibitory concentration (MIC). Minimum inhibitory concentration was determined by the agar plate dilution method in the following manner.
# (§2) Test strains were subjected to seed culture using Sensitivity test broth (STB, Nissui Pharmaceutical) except that the strains belonging to the genus Streptococcus, Branhamella and Haemophilus were cultured on blood agar plate. A 5 μl portion of cell suspension of the test strains having about 10^6 CFU/ml was inoculated into Sensitivity disk agar (SDA, Nissui Pharmaceutical) supplemented with 5% horse blood and incubated at 37° C. for 20 hours. Then, MIC was measured. […] Antimicrobial activities in vitro of the compounds (1) and (2) are shown in Table 1, and those of the compounds (3) and (4) in Table 3.
# B. catarrhalis W-0500 = experiment: MIC, agar plate dilution method; conditions: Moraxella catarrhalis
# Description: as §1, §2
# B. catarrhalis W-0506 = experiment: MIC, agar plate dilution method; conditions: Moraxella catarrhalis
# Description: as §1, §2
# E. coli NIHJ JC-2 = experiment: MIC, agar plate dilution method; conditions: Escherichia coli, NIHJJC2, 20 h, 37° C., SDA with 5% horse blood, read-out: Antimicrobial activity (MIC)
# Description: as §1, §2
# E. faecalis W-73 = experiment: MIC, agar plate dilution method; conditions: Enterococcus faecalis, W73, 20 h, read-out: Antimicrobial activity (MIC)
# Description: as §1, §2
# H. influenzae Type b = experiment: MIC, agar plate dilution method; conditions: Haemophilus influenzae
# Description: as §1, §2
# K. pneumoniae PCI602 = experiment: MIC, agar plate dilution method; conditions: Klebsiella pneumoniae, 37° C., SDA with 5% horse blood, read-out: Antimicrobial activity (MIC)
# Description: as §1, §2
# M. luteus ATCC9341 = experiment: MIC, agar plate dilution method; conditions: Micrococcus luteus
# Description: as §1, §2
# S. aureus 209P JC-1 = experiment: MIC, agar plate dilution method; conditions: Staphylococcus aureus, 209P, 20 h
# Description: as §1, §2
# S. aureus M126 = experiment: MIC, agar plate dilution method; conditions: Staphylococcus aureus, 37° C., 20 hours, SDA with 5% horse blood, read-out: Antimicrobial activity (MIC)
# Description: as §1, §2
# S. aureus M133 = experiment: MIC, agar plate dilution method; conditions: Staphylococcus aureus, M133, 20 h
# Description: as §1, §2
# S. aureus MS15009/pMS98 = experiment: MIC, agar plate dilution method; conditions: Staphylococcus aureus, MS15009/PMS98, 20 h, read-out: Antimicrobial activity (MIC), 37° C., 20 hours, SDA with 5% horse blood
# Description: as §1, §2
# S. aureus MS15009/pMS99 = experiment: MIC, agar plate dilution method; conditions: Staphylococcus aureus, MS15009/PMS99, 20 h, read-out: Antimicrobial activity (MIC)
# Description: as §1, §2
# S. aureus MS15026 = experiment: MIC, agar plate dilution method; conditions: Staphylococcus aureus, 37° C., 20 hours, SDA with 5% horse blood, read-out: Antimicrobial activity (MIC)
# Description: as §1, §2
# S. aureus MS15027 = experiment: MIC, agar plate dilution method; conditions: Staphylococcus aureus
# Description: as §1, §2
# S. epidermidis ATCC14990 = experiment: MIC, agar plate dilution method; conditions: Staphylococcus epidermidis
# Description: as §1, §2
# S. pneumoniae IP692 = experiment: MIC, agar plate dilution method; conditions: Streptococcus pneumoniae, IP692, 20 h
# Description: as §1, §2
# S. pneumoniae Type 1 = experiment: MIC, agar plate dilution method; conditions: Streptococcus pneumoniae
# Description: as §1, §2
# S. pyogenes Cook = experiment: MIC, agar plate dilution method; conditions: Streptococcus pyogenes; 37° C., 20 hours, SDA with 5% horse blood; read-out: Antimicrobial activity (MIC)
# Description: as §1, §2
# [1] = W0500, 37° C., 20 hours, SDA with 5% horse blood, read-out: Antimicrobial activity (MIC)
# [2] = W0506, 37° C., 20 hours, SDA with 5% horse blood, read-out: Antimicrobial activity (MIC)
# [3] = 20 h, read-out: Antimicrobial activity (MIC), 37° C., 20 hours, SDA with 5% horse blood
# [4] = ATCC9341, 20 h, read-out: Antimicrobial activity (MIC), 37° C., 20 hours, SDA with 5% horse blood
# [5] = read-out: Antimicrobial activity (MIC), 37° C., 20 hours, SDA with 5% horse blood
# [6] = MS15027, 20 h, read-out: Antimicrobial activity (MIC), 37° C., 20 hours, SDA with 5% horse blood
# [7] = ATCC14990, 20 h, read-out: Antimicrobial activity (MIC), 37° C., 20 hours, SDA with 5% horse blood
# [8] = TYPE1, 20 h, read-out: Antimicrobial activity (MIC), 37° C., 20 hours, SDA with 5% horse blood
# [9] = 37° C., 20 hours, SDA with 5% horse blood, read-out: Antimicrobial activity (MIC)
# [10] = ATCC9341, 37° C., 20 hours, SDA with 5% horse blood, read-out: Antimicrobial activity (MIC)
# [11] = MS15027, 37° C., 20 hours, SDA with 5% horse blood, read-out: Antimicrobial activity (MIC)
# [12] = ATCC14990, 37° C., 20 hours, SDA with 5% horse blood, read-out: Antimicrobial activity (MIC)
# [13] = TYPE1, 37° C., 20 hours, SDA with 5% horse blood, read-out: Antimicrobial activity (MIC)
structure (smiles),measurement,setting,value
"CCCC(=O)O[C@H]1[C@H](C)O[C@@H](O[C@H]2[C@H](N(C)C)[C@@H](O)[C@H](O[C@H]3[C@@H](CC=O)C[C@@H](C)[C@@H](OC(=O)CC)/C=C/C=C/C[C@@H](C)OC(=O)C[C@@H](O)[C@@H]3OC)O[C@@H]2C)C[C@@]1(C)OC [(40), 9-O-propionyl-3""-O-methylleucomycin A5]","antimicrobial activities compared with starting materials (1), (2) and (33)",test strains,strong antimicrobial activities by themselves though slightly lower than those of their starting materials
"CCC(=O)O[C@H]1[C@H](C)O[C@@H](O[C@H]2[C@H](N(C)C)[C@@H](O)[C@H](O[C@H]3[C@@H](CC=O)C[C@@H](C)[C@@H](OC(C)=O)/C=C/C=C/C[C@@H](C)OC(=O)C[C@@H](O)[C@@H]3OC)O[C@@H]2C)C[C@@]1(C)OC [(6), 9-O-acetyl-3""-O-methylleucomycin A7]","antimicrobial activities compared with starting materials (1), (2) and (33)",test strains,strong antimicrobial activities by themselves though slightly lower than those of their starting materials
"CCC(=O)O[C@@H]1CC(=O)O[C@H](C)C/C=C/C=C/[C@H](O)[C@H](C)C[C@H](CC=O)[C@H](O[C@@H]2O[C@H](C)[C@@H](O[C@H]3C[C@@](C)(O)[C@@H](O)[C@H](C)O3)[C@H](N(C)C)[C@H]2O)[C@H]1OC [MDM-M1, midecamycin M1, reference compound]",MIC,B. catarrhalis W-0500; [1],25 µg/mL
same,MIC,B. catarrhalis W-0506; [2],25 µg/mL
same,MIC,E. coli NIHJ JC-2,> 100 µg/mL
same,MIC,E. faecalis W-73,12.5 µg/mL
same,MIC,H. influenzae Type b; [3],100 µg/mL
same,MIC,"K. pneumoniae PCI602; PCI602, 20 h",> 100 µg/mL
same,MIC,M. luteus ATCC9341; [4],0.39 µg/mL
same,MIC,S. aureus 209P JC-1; [5],6.25 µg/mL
same,MIC,S. aureus M126,> 100 µg/mL
same,MIC,S. aureus M133; [5],12.5 µg/mL
same,MIC,S. aureus MS15009/pMS98,6.25 µg/mL
same,MIC,S. aureus MS15009/pMS99,> 100 µg/mL
same,MIC,S. aureus MS15026,> 100 µg/mL
same,MIC,S. aureus MS15027; [6],6.25 µg/mL
same,MIC,S. epidermidis ATCC14990; [7],12.5 µg/mL
same,MIC,S. pneumoniae IP692; [5],0.78 µg/mL
same,MIC,S. pneumoniae Type 1; [8],0.78 µg/mL
same,MIC,S. pyogenes Cook,1.56 µg/mL
"CCC(=O)O[C@H]1[C@H](C)O[C@@H](O[C@H]2[C@H](N(C)C)[C@@H](O)[C@H](O[C@H]3[C@@H](CC=O)C[C@@H](C)[C@@H](O)/C=C/C=C/C[C@@H](C)OC(=O)C[C@@H](O)[C@@H]3OC)O[C@@H]2C)C[C@@]1(C)O [LM-A7, leucomycin A7, reference compound]",MIC,"B. catarrhalis W-0500; W0500, 20 h, read-out: Antimicrobial activity (MIC), 37° C., 20 hours, SDA with 5% horse blood",12.5 µg/mL
same,MIC,B. catarrhalis W-0500; [1],0.78 µg/mL
same,MIC,"B. catarrhalis W-0506; W0506, 20 h, read-out: Antimicrobial activity (MIC), 37° C., 20 hours, SDA with 5% horse blood",12.5 µg/mL
same,MIC,B. catarrhalis W-0506; [2],0.78 µg/mL
same,MIC,E. coli NIHJ JC-2,> 100 µg/mL
same,MIC,H. influenzae Type b; [3],50 µg/mL
same,MIC,H. influenzae Type b; [9],6.25 µg/mL
same,MIC,"K. pneumoniae PCI602; PCI602, 20 h",> 100 µg/mL
same,MIC,M. luteus ATCC9341; [4],0.2 µg/mL
same,MIC,M. luteus ATCC9341; [10],0.05 µg/mL
same,MIC,S. aureus M126,> 100 µg/mL
same,MIC,S. aureus MS15009/pMS99,> 100 µg/mL
same,MIC,S. aureus MS15026,> 100 µg/mL
same,MIC,S. aureus MS15027; [6],3.13 µg/mL
same,MIC,S. aureus MS15027; [11],0.39 µg/mL
same,MIC,S. epidermidis ATCC14990; [7],3.13 µg/mL
same,MIC,S. epidermidis ATCC14990; [12],0.39 µg/mL
same,MIC,S. pneumoniae Type 1; [8],0.2 µg/mL
same,MIC,S. pneumoniae Type 1; [13],0.39 µg/mL
same,MIC,S. pyogenes Cook,0.39 µg/mL
"CCC(=O)O[C@@H]1CC(=O)O[C@H](C)C/C=C/C=C/[C@H](O)[C@H](C)C[C@H](CC=O)[C@H](O[C@@H]2O[C@H](C)[C@@H](O[C@H]3C[C@@](C)(O)[C@@H](OC(=O)CC)[C@H](C)O3)[C@H](N(C)C)[C@H]2O)[C@H]1OC [MDM, midecamycin A1, reference compound]",MIC,B. catarrhalis W-0500; [1],3.13 µg/mL
same,MIC,B. catarrhalis W-0506; [2],3.13 µg/mL
same,MIC,"E. faecalis W-73; 37° C., 20 hours, SDA with 5% horse blood",3.13 µg/mL
same,MIC,H. influenzae Type b; [9],25 µg/mL
same,MIC,"K. pneumoniae PCI602; PCI602, 20 hours",> 100 µg/mL
same,MIC,M. luteus ATCC9341; [10],0.05 µg/mL
same,MIC,S. aureus 209P JC-1; [9],0.39 µg/mL
same,MIC,S. aureus M126,> 100 µg/mL
same,MIC,S. aureus M133; [9],0.78 µg/mL
same,MIC,S. aureus MS15009/pMS98,0.39 µg/mL
same,MIC,S. aureus MS15009/pMS99,> 100 µg/mL
same,MIC,S. aureus MS15026,> 100 µg/mL
same,MIC,S. aureus MS15027; [11],0.78 µg/mL
same,MIC,S. epidermidis ATCC14990; [12],0.78 µg/mL
same,MIC,S. pneumoniae IP692; [9],0.39 µg/mL
same,MIC,S. pneumoniae Type 1; [13],0.39 µg/mL
"CCOC(C)O[C@H]1/C=C/C=C/C[C@@H](C)OC(=O)C[C@@H](OC(=O)CC)[C@H](OC)[C@@H](O[C@@H]2O[C@H](C)[C@@H](O[C@H]3C[C@@](C)(OC)[C@@H](OC(=O)CC)[C@H](C)O3)[C@H](N(C)C)[C@H]2O)[C@@H](CC=O)C[C@H]1C (single isomer, unassigned) [(16H)]",antimicrobial activities compared with compound (1),test strains,inferior to those of the compound (1)
"CCOC(C)O[C@H]1/C=C/C=C/C[C@@H](C)OC(=O)C[C@@H](OC(=O)CC)[C@H](OC)[C@@H](O[C@@H]2O[C@H](C)[C@@H](O[C@H]3C[C@@](C)(OC)[C@@H](OC(=O)CC)[C@H](C)O3)[C@H](N(C)C)[C@H]2O)[C@@H](CC=O)C[C@H]1C (single isomer, unassigned) [(16L)]",antimicrobial activities compared with compound (1),test strains,inferior to those of the compound (1)
"CCCC(=O)O[C@H]1[C@H](C)O[C@@H](O[C@H]2[C@H](N(C)C)[C@@H](O)[C@H](O[C@H]3[C@@H](CC=O)C[C@@H](C)[C@@H](OC(C)=O)/C=C/C=C/C[C@@H](C)OC(=O)C[C@@H](O)[C@@H]3OC)O[C@@H]2C)C[C@@]1(C)OC [(39), 9-O-acetyl-3""-O-methylleucomycin A5]","antimicrobial activities compared with starting materials (1), (2) and (33)",test strains,strong antimicrobial activities by themselves though slightly lower than those of their starting materials
